Read-outs that look alike come from different tables or passages of the source.
What was measured:
Type in all cases: cell-based
[1] = tested on: Pseudomonas aeruginosa, Enterobacter serogenes and Bacillus subtilus; assay: Preservation of acrylic latex paint, 9 week multiple challenge test (Table 1); parameters: key: 0: no growth was observed; +: less than 10 colonies were observed; ++: 10 or more colonies were observed
Experimental: The preservative effectiveness of compounds 1 and 2 was determined in a freshly prepared water-based paint formulated with titanium dioxide and calcium carbonate as pigments, an acrylic resin emulsion, dispersants, and hydroxyethyl cellulose as a thickener. The pH of this paint was approximately 9.0. […] One hundred gram samples of the test paints were challenged initially and at the end of the third and sixth weeks in a three-challenge, nine-week test with 1.0 milliliter of […] containing Pseudomonas aeruginosa, Enterobacter serogenes and Bacillus subtilus at a level of approximately 1.5×10^6 organisms per milliliter. After vigorous shaking, the inoculated paint was incubated at 28° C. Growth in system was monitored by streaking a sample of each test paint onto a nutrient agar on plates at intervals of 1 day, 2 days, 3 days, 7 days, and 21 days after each challenge. The streaked plates were incubated at 37° C. and examined for bacterial growth after 24 hours (challenge 1). A second sample of the same inoculated paint was rechallenged at the end of 21 days (challenge 2) and again at the end of 42 days (challenge 3).

Pseudomonas aeruginosa = assay: Pulp substrate method, percent kill of P. aeruginosa (Table 2)
Experimental: Compounds 1 and 2 were tested by the pulp substrate method described in detail in U.S. Pat. No. 2,881,070, column 5, line 12--column 6, line 53. The disclosure of U.S. Pat. No. 2,881,070 is specifically incorporated here by reference. […] The tests utilized Enterobacter aerogenes and Pseudomonas aeruginosa in pulp substrates that had been buffered at pH 7.0 and 8.0.

P. aeruginosa = assay: Basal salts method, percentage kill of P. aeruginosa (Table 5); details: Pseudomonas aeruginosa
Experimental: Compounds 1 and 2 were tested against bacterial growth by the basal salts method described in U.S. Pat. No. 2,881,070, Column 5, line 12--Column 6, line 53. The disclosure of U.S. Patent No. 2,881,070 is specifically incorporated here by reference.

[2] = tested on: Desulfovibrio desulfuricans; assay: Effectiveness against sulfate reducing bacterium, Method API Rp 38 (Table 7); parameters: key: +: growth; 0: no growth; details: pH 7.0, duplicates
Experimental: The effectiveness of compounds 1 and 2 against Desulfovibrio desulfuricans,a sulfate reducing bacterium, was determined using the method recommended by the American Petroleum Institute (Method API Rp 38). The composition of the sulfate-reducer medium for the bacteriostatic test is as follows: The ingredients are dissolved by gentle heating with constant stirring. […] If necessary, the medium is then filtered through Whatman No. 1 or No. 2 filter paper. Following filtration, the medium is autoclaved at 15 lb steam pressure for […]. After autoclaving, the medium is allowed to cool slightly and the iron salt, Fe(SO4)2 (NH4)2.6H2 O, is added. The pH is then checked and readjusted if necessary. The medium is now cooled to room temperature as rapidly as possible, without agitation. After cooling, the medium is inoculated from the third successive 24-hour transfer of an actively growing culture (a liquid culture which turns black within 24 hours after inoculation) of sulfate-reducing bacteria. Ten milliliters of inoculum are added to each liter of medium. From stock solutions of the chemical to be screened, sufficient amounts of the compounds are added to 1- or 2-oz clear bottles so that the desired concentrations of chemicals are present when the containers are filled. The amount of stock solution added cannot exceed 10 percent of the volume of the test bottle. After addition of the chemical, the bottles are completely filled with the inoculated medium. The bottles are then capped with plastic caps containing cork and aluminum foil or Teflon liners and are incubated at 30°±2° C. All work is done in duplicate with at least three controls for each series. The controls consist of bottles filled with inoculated medium only. Growth of sulfate-reducing bacteria in the bottles is indicated by an intense blackening of the medium, whereas containers having sufficient chemical to inhibit growth will remain clear. Bottles with no sulfate-reducing bacteria growth are observed for a period of 28 days after the controls have blackened. The results were recorded using a +/0 scale where "+" indicates growth and "0" indicates no growth.

[3] = pH 7.0, read-out: % Kill of P. aeroginosa
[4] = pH 8.0, read-out: % Kill of P. aeroginosa

COc1ccc(C(=O)CBr)cc1Br [Compound 1, 2,3'-dibromo-4'-methoxyacetophenone]
Observation of growth 21 days after challenge ([1]; 100 ppm w/w, challenge 1): ++ (10 or more colonies were observed) | Observation of growth 21 days after challenge ([1]; 100 ppm w/w, challenge 2): ++ (10 or more colonies were observed) | Observation of growth 21 days after challenge ([1]; 100 ppm w/w, challenge 3): ++ (10 or more colonies were observed) | Observation of growth 21 days after challenge ([1]; 250 ppm w/w, challenge 1): 0 | Observation of growth 21 days after challenge ([1]; 250 ppm w/w, challenge 2): 0 | Observation of growth 21 days after challenge ([1]; 250 ppm w/w, challenge 3): 0 | Observation of growth 21 days after challenge ([1]; 500 ppm w/w, challenge 1): 0 | Observation of growth 21 days after challenge ([1]; 500 ppm w/w, challenge 2): 0 | Observation of growth 21 days after challenge ([1]; 500 ppm w/w, challenge 3): 0 | Observation of growth 21 days after challenge ([1]; 2500 ppm w/w, challenge 1): 0 | Observation of growth 21 days after challenge ([1]; 2500 ppm w/w, challenge 2): 0 | Observation of growth 21 days after challenge ([1]; 2500 ppm w/w, challenge 3): 0 | Observation of growth 21 days after challenge ([1]; 5000 ppm w/w, challenge 1): 0 | Observation of growth 21 days after challenge ([1]; 5000 ppm w/w, challenge 2): 0 | Observation of growth 21 days after challenge ([1]; 5000 ppm w/w, challenge 3): 0 | killing at 1 ppm (Pseudomonas aeruginosa; [3]): 6% | killing at 1 ppm (Pseudomonas aeruginosa; [4]): 85% | killing at 2 ppm (Pseudomonas aeruginosa; [3]): 7% | killing at 2 ppm (Pseudomonas aeruginosa; [4]): 75% | killing at 4 ppm (Pseudomonas aeruginosa; [3]): 43% | killing at 4 ppm (Pseudomonas aeruginosa; [4]): 89% | killing at 8 ppm (Pseudomonas aeruginosa; [3]): 67% | killing at 8 ppm (Pseudomonas aeruginosa; [4]): 70% | killing at 10 ppm (Pseudomonas aeruginosa; [3]): 93% | killing at 10 ppm (Pseudomonas aeruginosa; [4]): 79% | killing at 15 ppm (Pseudomonas aeruginosa; [3]): 94% | killing at 15 ppm (Pseudomonas aeruginosa; [4]): 94% | killing at 20 ppm (Pseudomonas aeruginosa; [3]): 98% | killing at 20 ppm (Pseudomonas aeruginosa; [4]): 89% | killing at 25 ppm (Pseudomonas aeruginosa; [3]): 97% | killing at 25 ppm (Pseudomonas aeruginosa; [4]): 99% | killing at 10 ppm (P. aeruginosa; pH 6.0): 100% | killing at 10 ppm (P. aeruginosa; pH 8.0): 98% | killing at 20 ppm (P. aeruginosa; pH 6.0): 100% | killing at 20 ppm (P. aeruginosa; pH 8.0): 99% | killing at 30 ppm (P. aeruginosa; pH 6.0): 100% | killing at 30 ppm (P. aeruginosa; pH 8.0): 99.6% | growth of Desulfovibrio desulfuricans ([2]; 1 ppm): + | growth of Desulfovibrio desulfuricans ([2]; 2 ppm): + | growth of Desulfovibrio desulfuricans ([2]; 8 ppm): +

COc1ccc(C(=O)C(Br)Br)cc1Br [Compound 2, 2,2,3'-tribromo-4'-methoxyacetophenone]
Observation of growth 21 days after challenge ([1]; 100 ppm w/w, challenge 1): ++ (10 or more colonies were observed) | Observation of growth 21 days after challenge ([1]; 100 ppm w/w, challenge 2): ++ (10 or more colonies were observed) | Observation of growth 21 days after challenge ([1]; 100 ppm w/w, challenge 3): ++ (10 or more colonies were observed) | Observation of growth 21 days after challenge ([1]; 250 ppm w/w, challenge 1): 0 | Observation of growth 21 days after challenge ([1]; 250 ppm w/w, challenge 2): 0 | Observation of growth 21 days after challenge ([1]; 250 ppm w/w, challenge 3): 0 | Observation of growth 21 days after challenge ([1]; 500 ppm w/w, challenge 1): 0 | Observation of growth 21 days after challenge ([1]; 500 ppm w/w, challenge 2): 0 | Observation of growth 21 days after challenge ([1]; 500 ppm w/w, challenge 3): 0 | Observation of growth 21 days after challenge ([1]; 2500 ppm w/w, challenge 1): 0 | Observation of growth 21 days after challenge ([1]; 2500 ppm w/w, challenge 2): 0 | Observation of growth 21 days after challenge ([1]; 2500 ppm w/w, challenge 3): 0 | Observation of growth 21 days after challenge ([1]; 5000 ppm w/w, challenge 1): 0 | Observation of growth 21 days after challenge ([1]; 5000 ppm w/w, challenge 2): 0 | Observation of growth 21 days after challenge ([1]; 5000 ppm w/w, challenge 3): 0 | killing at 1 ppm (Pseudomonas aeruginosa; [3]): 15% | killing at 1 ppm (Pseudomonas aeruginosa; [4]): 0% | killing at 2 ppm (Pseudomonas aeruginosa; [3]): 0% | killing at 2 ppm (Pseudomonas aeruginosa; [4]): 54% | killing at 4 ppm (Pseudomonas aeruginosa; [3]): 36% | killing at 4 ppm (Pseudomonas aeruginosa; [4]): 25% | killing at 8 ppm (Pseudomonas aeruginosa; [3]): 17% | killing at 8 ppm (Pseudomonas aeruginosa; [4]): 71% | killing at 10 ppm (Pseudomonas aeruginosa; [3]): 80% | killing at 10 ppm (Pseudomonas aeruginosa; [4]): 86% | killing at 15 ppm (Pseudomonas aeruginosa; [3]): 97% | killing at 15 ppm (Pseudomonas aeruginosa; [4]): 94% | killing at 20 ppm (Pseudomonas aeruginosa; [3]): 98% | killing at 20 ppm (Pseudomonas aeruginosa; [4]): 99% | killing at 25 ppm (Pseudomonas aeruginosa; [3]): 97% | killing at 25 ppm (Pseudomonas aeruginosa; [4]): 99% | killing at 10 ppm (P. aeruginosa; pH 6.0): 99.8% | killing at 10 ppm (P. aeruginosa; pH 8.0): 94% | killing at 20 ppm (P. aeruginosa; pH 6.0): 100% | killing at 20 ppm (P. aeruginosa; pH 8.0): 100% | killing at 30 ppm (P. aeruginosa; pH 8.0): 100% | growth of Desulfovibrio desulfuricans ([2]; 1 ppm): + | growth of Desulfovibrio desulfuricans ([2]; 2 ppm): + | growth of Desulfovibrio desulfuricans ([2]; 8 ppm): +

— patent US5466717A, “Halogenated 4'-methoxyacetophenones as microbicides and preservatives” (Buckman Laboratories Int'l, Inc., priority 1993, dated 1995)
